Assay results reported in US20090018106A1, “INTRAVENOUS FORMULATIONS OF PYRIDOXAL 5'- PHOSPHATE AND METHOD OF PREPARATION” (Medicure International Inc., priority 2005, published 2009).
Read-outs that look alike come from different tables or passages of the source.

Experiments:
[1] = Once daily intravenous 10 mg/kg P5P for four days, urinary excretion and renal clearance (Example Four); assay type: in vivo, human; settings: 10 mg/kg iv once daily, 4 days, P5P uncorrected, mean; for CL renal: human, urine and plasma, iv, 10 mg/kg, read-out: CLR, renal clearance (converted)
Description: Data sets analyzed—Six (6) healthy, adult non-smokers were administered intravenously a single daily dose of 10 mg/kb of P5P for four consecutive days and completed the study. In accordance with the study protocol, data from all subjects who completed the study were used for pharmacokinetic and statistical analysis.
Analytical Methods—Plasma and urine samples were used for analysis. P5P, PAL, and PA levels were determined by HPLC/FLD. The quantitation level was 5 ng/mL for plasma and 100 ng/mL for urine. The sample analysis calibration curve range was 5 ng/mL to 5000 ng/mL for plasma and 100 ng/mL to 50,000 ng/mL for urine.
Total and Renal Clearance—Total body clearance was estimated for P5P and was calculated as Dose/AUC0-inf.

[2] = Single intravenous dose escalation of P5P, plasma pharmacokinetics (Examples Two and Three); assay type: in vivo, human; settings: for Cmax / MRT / Tmax / Vd / clearance / AUC / half-life / AUC(0-t): both sexes, human, plasma; for Cmax / MRT / Tmax / Vd / clearance / AUC / half-life: iv; for AUC(0-t): read-out: AUC-T
Description: A phase one clinical trial was conducted to compare the pharmacokinetics of intravenously administered P5P and orally administered P5P. The trial was a single dose escalation study.
For intravenous administration, P5P was administered by bolus injection under fasting conditions. The following doses of P5P were studied: 1, 5, 10, and 20 mg/kg. 6 subjects were assigned to each dosage group.
P5P, pyridoxal, and 4-pyridoxic acid were evaluated in both plasma and urine over a 24 hour interval following either intravenous or oral dosing. The results are set out below in Tables 2 and 3.
Methodology—This was a single-blind, single-dose escalation, non-randomized, 4-phase, non-crossover study designed to evaluate the safety and […] subjects under fasting conditions and to estimate pharmacokinetic parameters of P5P.
Subjects were assigned to one of the four groups (six subjects per group) under fasting conditions.
Concentrations of pyridoxal-5′-phosphate (P5P) were measured from the plasma samples collected over a 24-bour interval after dosing in each phase.
Pharmacokinetic parameters: AUCt, AUCinf, Cmax, Tmax, Kel, Thalf, Vd, CL, MRT and F were estimated based on pyridoxal-5′-phosphate (P5P) plasma levels for each subject that was in the final data set.
The test product used was a P5P Intravenous Injectable Solution, 50 mg/ml, which was prepared in accordance with the methods of Example 1 (CanAm BioResearch Inc. Canada); Lot No.: LP1459: Manufacturing Date: 12/03. A single 1, 5, 10 or 20 mg/kg dose was given by intravenous injection. The duration of treatment was a single dose.
Secondary Endpoint—Pharmacokinetic (PK) Parameters—Plasma concentrations of pyridoxal-5′-phosphate (P5P) were measured by a validated analytical method. Based on these concentration levels, AUCt, AUCinf, Cmax, Tmax, Kel, Thalf, Vd, CL, MRT and F were estimated.
Statistical Methods—Descriptive statistics were calculated by treatments for the estimated pharmacokinetic parameters.

[3] = 1 mg/kg, Group 1, P5P 1 mg/kg single iv, plasma P5P, mean
[4] = 1 mg/kg, P5P 1 mg/kg single iv bolus, fasting
[5] = 5 mg/kg, Group 2, P5P 5 mg/kg single iv, plasma P5P, mean
[6] = 5 mg/kg, P5P 5 mg/kg single iv bolus, fasting
[7] = 10 mg/kg, Group 3, P5P 10 mg/kg single iv, plasma P5P, mean
[8] = 10 mg/kg, Group 4, dose 10 mg/kg, single iv, plasma P5P, mean
[9] = 10 mg/kg, P5P 10 mg/kg single iv bolus, fasting
[10] = 20 mg/kg, P5P 20 mg/kg single iv bolus, fasting
[11] = ln(pK Parameter) = b0 + b1 * ln (Dose)
[12] = ln(pK Parameter) = b0 + b1 * ln (Dose), single iv 1-20 mg/kg

For `Cc1ncc(COP(=O)(O)O)c(C=O)c1O` [P5P, Pyridoxal 5′-phosphate, reference compound], the “Ae0-t, total amount excreted in urine” value ([1]; Day 1) was 848625 ng, the “Ae0-t, total amount excreted in urine” value ([1]; Day 4) was 558650 ng and the CL renal ([1]; Day 1) was 0.0465 mL/min. It also gave a CL renal ([1]; Day 4) of 0.029 mL/min, a Kel ([2]; Group 1, P5P 1 mg/kg single iv, plasma P5P, mean) of 0.14 h⁻¹ and a Kel ([2]; Group 2, P5P 5 mg/kg single iv, plasma P5P, mean) of 0.118 h⁻¹. It also gave a Kel ([2]; Group 3, P5P 10 mg/kg single iv, plasma P5P, mean) of 0.12 h⁻¹, a Kel ([2]; Group 4, dose 10 mg/kg, single iv, plasma P5P, mean) of 0.14 h⁻¹ and a Cmax [2, 3] of 20 µg/mL. It also gave an MRT [2, 3] of 3.73 h, a Tmax [2, 3] of 8.4 min and a Vd [2, 3] of 13 L. The clearance [2, 3] was 29.3 mL/min, the AUC ([2]; 1 mg/kg, Group 1, P5P 1 mg/kg single iv, plasma P5P, mean, read-out: AUC (O-t)) was 38.4 µg·h/mL and the AUC ([2]; 1 mg/kg, Group 1, P5P 1 mg/kg single iv, plasma P5P, mean, read-out: AUC (o-inf)) was 39.1 µg·h/mL. It also gave a half-life ([2]; 1 mg/kg, Group 1, P5P 1 mg/kg single iv, plasma P5P, mean, read-out: T½ (converted)) of 5.11 h, a Cmax [2, 4] of 20 ± 2.95 µg/mL and a Tmax [2, 4] of 8.4 ± 4.2 min. The half-life ([2]; 1 mg/kg, P5P 1 mg/kg single iv bolus, fasting, read-out: T½ (converted)) was 5.11 ± 0.98 h, the Cmax [2, 5] was 98.8 µg/mL and the MRT [2, 5] was 3.52 h. It also gave a Tmax [2, 5] of 8.4 min, a Vd [2, 5] of 16.3 L and a clearance [2, 5] of 32.1 mL/min. It also gave an AUC ([2]; 5 mg/kg, Group 2, P5P 5 mg/kg single iv, plasma P5P, mean, read-out: AUC (O-t)) of 173 µg·h/mL, an AUC ([2]; 5 mg/kg, Group 2, P5P 5 mg/kg single iv, plasma P5P, mean, read-out: AUC (o-inf)) of 176 µg·h/mL and a half-life ([2]; 5 mg/kg, Group 2, P5P 5 mg/kg single iv, plasma P5P, mean, read-out: T½ (converted)) of 5.89 h. For the same molecule, the Cmax [2, 6] was 98.8 ± 16 µg/mL, the Tmax [2, 6] was 8.4 ± 4.2 min and the half-life ([2]; 5 mg/kg, P5P 5 mg/kg single iv bolus, fasting, read-out: T½ (converted)) was 5.89 ± 0.39 h. The Cmax [2, 7] was 220 µg/mL, the MRT [2, 7] was 3.11 h and the Tmax [2, 7] was 6 min. For the same molecule, the Vd [2, 7] was 18 L, the clearance [2, 7] was 35.2 mL/min and the AUC ([2]; 10 mg/kg, Group 3, P5P 10 mg/kg single iv, plasma P5P, mean, read-out: AUC (o-inf)) was 312 µg·h/mL. For the same molecule, the half-life ([2]; 10 mg/kg, Group 3, P5P 10 mg/kg single iv, plasma P5P, mean, read-out: T½ (converted)) was 5.81 h, the Cmax [2, 8] was 424 µg/mL and the MRT [2, 8] was 3.32 h. It also gave a Tmax [2, 8] of 9 min, a Vd [2, 8] of 17.5 L and a clearance [2, 8] of 39.8 mL/min. It also gave an AUC ([2]; 10 mg/kg, Group 4, dose 10 mg/kg, single iv, plasma P5P, mean, read-out: AUC (O-t)) of 577 µg·h/mL, an AUC ([2]; 10 mg/kg, Group 4, dose 10 mg/kg, single iv, plasma P5P, mean, read-out: AUC (o-inf)) of 585 µg·h/mL and a half-life ([2]; 10 mg/kg, Group 4, dose 10 mg/kg, single iv, plasma P5P, mean, read-out: T½ (converted)) of 5.03 h. The Cmax [2, 9] was 220 ± 9.52 µg/mL, the Tmax [2, 9] was 6 ± 1.8 min and the half-life ([2]; 10 mg/kg, P5P 10 mg/kg single iv bolus, fasting, read-out: T½ (converted)) was 5.87 ± 0.89 h. For the same molecule, the Cmax [2, 10] was 424 ± 96.9 µg/mL, the Tmax [2, 10] was 9 ± 4.2 min and the half-life ([2]; 20 mg/kg, P5P 20 mg/kg single iv bolus, fasting, read-out: T½ (converted)) was 5.03 ± 0.72 h. For the same molecule, the half-life ([2]; over all single iv doses of P5P (1-20 mg/kg), read-out: apparent elimination half-life (converted)) was 5 to 6 h, the AUC(0-t) ([2]; P5P 1 mg/kg single iv bolus, fasting) was 38.4 ± 4.61 µg·h/mL and the AUC(0-t) ([2]; P5P 5 mg/kg single iv bolus, fasting) was 173 ± 31.9 µg·h/mL. The AUC(0-t) ([2]; P5P 10 mg/kg single iv bolus, fasting) was 308 ± 45.5 µg·h/mL, the AUC(0-t) ([2]; P5P 20 mg/kg single iv bolus, fasting) was 577 ± 62.5 µg·h/mL and the “Significance of b1, lnAUCi” value [2, 11] was under 0.0001. For the same molecule, the “Significance of b1, lnCl” value [2, 11] was 0.0128, the “Significance of b1, lnCmax” value [2, 11] was under 0.0001 and the “Significance of b1, lnMRT” value [2, 11] was 0.1568. The “Significance of b1, lnThalf” value [2, 11] was 0.6177, the “Coef. for Dose (b1), lnAUCi” value [2, 12] was 0.90 and the “Coef. for Dose (b1), lnCl” value [2, 12] was 0.10. The “Coef. for Dose (b1), lnCmax” value [2, 12] was 1.03, the “Coef. for Dose (b1), lnMRT” value [2, 12] was −0.05 and the “Coef. for Dose (b1), lnThalf” value [2, 12] was 0.02. For the same molecule, the “Intercept (b0), lnAUCi” value [2, 12] was 3.67, the “Intercept (b0), lnCl” value [2, 12] was 7.44 and the “Intercept (b0), lnCmax” value [2, 12] was 2.98. The “Intercept (b0), lnMRT” value [2, 12] was 1.29, the “Intercept (b0), lnThalf” value [2, 12] was 1.67 and the “bioavailability, intravenous versus oral” value ([2]; single iv bolus vs single oral tablets) was “greater when intravenously administered rather than orally administered”.
